Read-outs that look alike come from different tables or passages of the source.
What was measured:
kinases (468) [1] = target: kinases (468) (Homo sapiens, UniProt P0C264); conditions: kinase SgK110 (Entrez SgK110); compound concentration 1000 nM
kinases (468) [2] = target: kinases (468) (Homo sapiens, UniProt P10721); conditions: 1000 nM
kinases (468) [3] = target: kinases (468) (Homo sapiens, UniProt P31749); conditions: AKT1; 1000 nM
kinases (468) [4] = target: kinases (468) (Homo sapiens, UniProt Q8TDX7); conditions: NEK7; 1000 nM
kinases (468) [5] = target: kinases (468) (Homo sapiens, UniProt O15530); conditions: PDPK1; 1000 nM
kinases (468) [6] = target: kinases (468) (Homo sapiens, UniProt Q9Y2U5); conditions: MAP3K2; 1000 nM
kinases (468) [7] = target: kinases (468) (Homo sapiens, UniProt P49336); conditions: CDK8; 1000 nM
kinases (468) [8] = target: kinases (468) (Homo sapiens, UniProt P22694); conditions: PKAC-beta (PRKACB); 1000 nM
kinases (468) [9] = target: kinases (468) (Homo sapiens, UniProt Q9H2X6); conditions: HIPK2; 1000 nM
kinases (468) (Homo sapiens, UniProt Q9H2X6), sequence (Q9H2X6 whole entry): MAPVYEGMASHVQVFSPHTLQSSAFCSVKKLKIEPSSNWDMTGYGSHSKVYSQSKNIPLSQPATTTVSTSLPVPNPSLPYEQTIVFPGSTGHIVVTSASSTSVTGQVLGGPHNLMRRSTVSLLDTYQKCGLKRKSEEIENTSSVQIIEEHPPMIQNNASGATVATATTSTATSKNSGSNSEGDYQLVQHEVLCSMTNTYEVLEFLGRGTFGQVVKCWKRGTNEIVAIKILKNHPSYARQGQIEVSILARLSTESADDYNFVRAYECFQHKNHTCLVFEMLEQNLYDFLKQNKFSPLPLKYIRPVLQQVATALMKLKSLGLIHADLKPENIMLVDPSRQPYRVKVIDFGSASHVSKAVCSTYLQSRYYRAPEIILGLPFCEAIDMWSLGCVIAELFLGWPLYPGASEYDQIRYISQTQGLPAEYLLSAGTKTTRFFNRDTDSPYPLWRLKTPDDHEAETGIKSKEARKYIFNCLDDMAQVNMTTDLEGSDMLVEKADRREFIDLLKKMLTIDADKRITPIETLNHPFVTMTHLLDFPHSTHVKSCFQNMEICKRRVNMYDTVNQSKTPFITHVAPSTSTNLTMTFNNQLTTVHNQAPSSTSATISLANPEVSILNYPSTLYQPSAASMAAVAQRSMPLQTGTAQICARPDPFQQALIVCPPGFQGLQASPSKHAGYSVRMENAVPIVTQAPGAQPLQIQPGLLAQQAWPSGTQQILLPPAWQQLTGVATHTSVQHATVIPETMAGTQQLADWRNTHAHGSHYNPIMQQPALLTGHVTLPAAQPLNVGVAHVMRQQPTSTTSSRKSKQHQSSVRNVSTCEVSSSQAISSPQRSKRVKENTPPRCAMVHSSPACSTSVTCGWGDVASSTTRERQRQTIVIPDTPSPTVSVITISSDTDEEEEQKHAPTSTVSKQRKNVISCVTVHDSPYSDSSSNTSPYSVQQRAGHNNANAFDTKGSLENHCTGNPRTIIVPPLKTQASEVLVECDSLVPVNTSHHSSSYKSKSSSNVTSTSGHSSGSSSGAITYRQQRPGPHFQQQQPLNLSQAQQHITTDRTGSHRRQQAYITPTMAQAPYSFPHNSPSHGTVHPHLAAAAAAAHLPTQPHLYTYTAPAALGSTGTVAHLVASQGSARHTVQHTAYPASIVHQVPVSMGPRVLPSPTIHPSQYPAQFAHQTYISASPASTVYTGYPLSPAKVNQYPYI

kinases (468) [10] = target: kinases (468) (Homo sapiens, UniProt Q14012); conditions: CAMK1; 1000 nM
kinases (468) [11] = target: kinases (468) (Homo sapiens, UniProt P35590); conditions: kinase TIE1 (Entrez TIE1); compound concentration 1000 nM
kinases (468) [12] = target: kinases (468) (Homo sapiens, UniProt Q8TBX8); conditions: PIP5K2C (PIP4K2C); 1000 nM
kinases (468) [13] = target: kinases (468) (Homo sapiens, UniProt Q15746); conditions: MYLK; 1000 nM
kinases (468) [14] = target: kinases (468) (Homo sapiens, UniProt P53671); conditions: LIMK2; 1000 nM
kinases (468) [15] = target: kinases (468) (Homo sapiens, UniProt Q96BR1); conditions: kinase SGK3 (Entrez SGK3); compound concentration 1000 nM
kinases (468) [16] = target: kinases (468) (Homo sapiens, UniProt P15056); conditions: BRAF; 1000 nM
kinases (468) [17] = target: kinases (468) (Homo sapiens, UniProt Q86UX6); conditions: kinase YANK3 (Entrez STK32C); compound concentration 1000 nM
kinases (468) [18] = target: kinases (468) (Homo sapiens, UniProt Q9C098); conditions: DCAMKL3 (DCLK3); 1000 nM
kinases (468) [19] = target: kinases (468) (Homo sapiens, UniProt P51812); conditions: compound concentration 1000 nM
kinases (468) (Homo sapiens, UniProt P51812), sequence (P51812 whole entry): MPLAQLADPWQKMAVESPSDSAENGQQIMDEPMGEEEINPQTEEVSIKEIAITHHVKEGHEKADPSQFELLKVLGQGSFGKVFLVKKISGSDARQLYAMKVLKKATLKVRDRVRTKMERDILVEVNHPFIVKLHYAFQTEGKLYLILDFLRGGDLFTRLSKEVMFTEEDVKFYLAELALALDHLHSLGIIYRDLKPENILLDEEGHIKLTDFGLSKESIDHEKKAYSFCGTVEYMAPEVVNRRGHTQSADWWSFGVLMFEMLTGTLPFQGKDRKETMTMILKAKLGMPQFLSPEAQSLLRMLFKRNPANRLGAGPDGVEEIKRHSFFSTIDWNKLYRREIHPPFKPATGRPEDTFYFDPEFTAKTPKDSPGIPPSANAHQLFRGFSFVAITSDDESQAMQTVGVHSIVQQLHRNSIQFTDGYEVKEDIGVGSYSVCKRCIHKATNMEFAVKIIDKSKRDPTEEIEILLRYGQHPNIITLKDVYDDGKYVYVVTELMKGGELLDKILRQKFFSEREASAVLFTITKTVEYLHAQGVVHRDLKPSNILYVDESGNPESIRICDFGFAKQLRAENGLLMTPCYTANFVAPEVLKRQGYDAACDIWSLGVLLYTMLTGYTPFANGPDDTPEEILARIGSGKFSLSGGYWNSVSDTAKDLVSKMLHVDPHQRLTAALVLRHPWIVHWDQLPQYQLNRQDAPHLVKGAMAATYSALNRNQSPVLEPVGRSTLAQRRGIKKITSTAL

kinases (468) [20] = target: kinases (468) (Homo sapiens, UniProt P17612); conditions: PKAC-alpha (PRKACA); 1000 nM
kinases (468) [21] = target: kinases (468) (Homo sapiens, UniProt Q15835); conditions: GRK1; 1000 nM
kinases (468) [22] = target: kinases (468) (Homo sapiens, UniProt P25098); conditions: GRK2 (ADRBK1); 1000 nM
kinases (468) (Homo sapiens, UniProt P25098), sequence (P25098 whole entry): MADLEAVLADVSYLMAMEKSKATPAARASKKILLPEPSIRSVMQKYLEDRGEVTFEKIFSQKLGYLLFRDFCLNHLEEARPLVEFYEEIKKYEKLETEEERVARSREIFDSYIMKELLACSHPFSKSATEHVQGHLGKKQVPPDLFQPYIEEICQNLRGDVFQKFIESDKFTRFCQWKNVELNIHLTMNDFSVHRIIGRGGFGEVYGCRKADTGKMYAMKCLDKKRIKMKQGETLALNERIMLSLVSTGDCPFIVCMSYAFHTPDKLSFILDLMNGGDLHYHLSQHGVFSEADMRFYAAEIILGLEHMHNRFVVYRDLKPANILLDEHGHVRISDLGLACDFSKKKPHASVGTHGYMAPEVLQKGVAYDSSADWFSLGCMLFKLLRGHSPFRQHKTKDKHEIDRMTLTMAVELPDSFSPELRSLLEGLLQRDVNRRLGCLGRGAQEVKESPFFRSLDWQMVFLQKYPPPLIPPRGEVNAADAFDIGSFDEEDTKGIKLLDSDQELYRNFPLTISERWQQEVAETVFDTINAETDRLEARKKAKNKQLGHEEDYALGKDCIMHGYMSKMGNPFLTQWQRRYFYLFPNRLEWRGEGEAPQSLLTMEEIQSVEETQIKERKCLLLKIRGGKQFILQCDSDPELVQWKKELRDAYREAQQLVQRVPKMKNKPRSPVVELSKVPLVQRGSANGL

kinases (468) [23] = target: kinases (468) (Homo sapiens, UniProt Q9NRP7); conditions: kinase STK36 (Entrez STK36); compound concentration 1000 nM
kinases (468) (Homo sapiens, UniProt Q9NRP7), sequence (Q9NRP7 whole entry): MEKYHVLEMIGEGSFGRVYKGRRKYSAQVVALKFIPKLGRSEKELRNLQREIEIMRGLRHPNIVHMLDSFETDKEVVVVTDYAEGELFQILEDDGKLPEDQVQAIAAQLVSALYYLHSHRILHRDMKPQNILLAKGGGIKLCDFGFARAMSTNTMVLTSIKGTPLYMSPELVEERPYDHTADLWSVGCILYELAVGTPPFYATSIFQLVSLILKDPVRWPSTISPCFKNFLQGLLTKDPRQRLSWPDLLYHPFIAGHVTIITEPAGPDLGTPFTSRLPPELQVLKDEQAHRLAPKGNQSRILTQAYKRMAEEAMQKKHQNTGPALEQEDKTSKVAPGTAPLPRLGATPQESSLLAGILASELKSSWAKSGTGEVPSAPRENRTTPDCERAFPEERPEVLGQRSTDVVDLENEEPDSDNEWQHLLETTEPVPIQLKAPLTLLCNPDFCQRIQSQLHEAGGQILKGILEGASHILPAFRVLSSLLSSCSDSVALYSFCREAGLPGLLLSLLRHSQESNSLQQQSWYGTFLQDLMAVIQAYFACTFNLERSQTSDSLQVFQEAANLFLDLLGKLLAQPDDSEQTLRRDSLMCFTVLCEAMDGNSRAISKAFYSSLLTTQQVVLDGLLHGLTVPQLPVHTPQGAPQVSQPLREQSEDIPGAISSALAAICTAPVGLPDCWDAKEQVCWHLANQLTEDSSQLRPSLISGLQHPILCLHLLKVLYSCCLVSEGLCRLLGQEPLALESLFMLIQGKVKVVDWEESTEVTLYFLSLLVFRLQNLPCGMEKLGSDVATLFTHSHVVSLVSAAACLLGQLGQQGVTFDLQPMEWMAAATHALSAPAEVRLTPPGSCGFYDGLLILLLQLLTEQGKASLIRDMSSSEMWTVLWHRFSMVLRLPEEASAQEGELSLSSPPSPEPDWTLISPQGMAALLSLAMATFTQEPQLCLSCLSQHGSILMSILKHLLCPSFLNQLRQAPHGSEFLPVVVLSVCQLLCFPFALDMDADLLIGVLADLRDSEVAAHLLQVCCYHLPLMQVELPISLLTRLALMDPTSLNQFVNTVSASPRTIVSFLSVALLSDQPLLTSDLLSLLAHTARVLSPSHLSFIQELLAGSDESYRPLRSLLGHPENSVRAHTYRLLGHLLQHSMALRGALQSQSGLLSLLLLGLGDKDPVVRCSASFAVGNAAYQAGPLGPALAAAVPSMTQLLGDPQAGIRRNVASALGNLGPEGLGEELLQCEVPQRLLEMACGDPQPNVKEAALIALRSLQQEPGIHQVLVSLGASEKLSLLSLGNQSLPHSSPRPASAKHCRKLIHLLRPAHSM

kinases (468) [24] = target: kinases (468) (Homo sapiens, UniProt P78356); conditions: PIP5K2B (PIP4K2B); 1000 nM
kinases (468) [25] = target: kinases (468) (Homo sapiens, UniProt Q9UEW8); conditions: kinase STK39 (Entrez STK39); compound concentration 1000 nM
kinases (468) [26] = target: kinases (468) (Homo sapiens, UniProt Q07912); conditions: kinase TNK2 (Entrez TNK2); compound concentration 1000 nM
kinases (468) [27] = target: kinases (468) (Homo sapiens, UniProt Q06418); conditions: kinase TYRO3 (Entrez TYRO3); compound concentration 1000 nM
kinases (468) [28] = target: kinases (468) (Homo sapiens, UniProt Q16816); conditions: PHKG1; 1000 nM
kinases (468) [29] = target: kinases (468) (Homo sapiens, UniProt Q9BYP7); conditions: kinase WNK3 (Entrez WNK3); compound concentration 1000 nM
kinases (468) [30] = target: kinases (468) (Homo sapiens, UniProt P49674); conditions: CSNK1E; 1000 nM
kinases (468) [31] = target: kinases (468) (Homo sapiens, UniProt Q13523); conditions: PRP4 (PRPF4B); 1000 nM
kinases (468) [32] = target: kinases (468) (Homo sapiens, UniProt Q14680); conditions: MELK; 1000 nM
kinases (468) [33] = target: kinases (468) (Homo sapiens, UniProt Q9Y5S2); conditions: MRCKB (CDC42BPB); 1000 nM
kinases (468) [34] = target: kinases (468) (Homo sapiens, UniProt Q13188); conditions: MST2 (STK3); 1000 nM

kinases (468) (Homo sapiens, UniProt P10721), sequence (P10721 26-976): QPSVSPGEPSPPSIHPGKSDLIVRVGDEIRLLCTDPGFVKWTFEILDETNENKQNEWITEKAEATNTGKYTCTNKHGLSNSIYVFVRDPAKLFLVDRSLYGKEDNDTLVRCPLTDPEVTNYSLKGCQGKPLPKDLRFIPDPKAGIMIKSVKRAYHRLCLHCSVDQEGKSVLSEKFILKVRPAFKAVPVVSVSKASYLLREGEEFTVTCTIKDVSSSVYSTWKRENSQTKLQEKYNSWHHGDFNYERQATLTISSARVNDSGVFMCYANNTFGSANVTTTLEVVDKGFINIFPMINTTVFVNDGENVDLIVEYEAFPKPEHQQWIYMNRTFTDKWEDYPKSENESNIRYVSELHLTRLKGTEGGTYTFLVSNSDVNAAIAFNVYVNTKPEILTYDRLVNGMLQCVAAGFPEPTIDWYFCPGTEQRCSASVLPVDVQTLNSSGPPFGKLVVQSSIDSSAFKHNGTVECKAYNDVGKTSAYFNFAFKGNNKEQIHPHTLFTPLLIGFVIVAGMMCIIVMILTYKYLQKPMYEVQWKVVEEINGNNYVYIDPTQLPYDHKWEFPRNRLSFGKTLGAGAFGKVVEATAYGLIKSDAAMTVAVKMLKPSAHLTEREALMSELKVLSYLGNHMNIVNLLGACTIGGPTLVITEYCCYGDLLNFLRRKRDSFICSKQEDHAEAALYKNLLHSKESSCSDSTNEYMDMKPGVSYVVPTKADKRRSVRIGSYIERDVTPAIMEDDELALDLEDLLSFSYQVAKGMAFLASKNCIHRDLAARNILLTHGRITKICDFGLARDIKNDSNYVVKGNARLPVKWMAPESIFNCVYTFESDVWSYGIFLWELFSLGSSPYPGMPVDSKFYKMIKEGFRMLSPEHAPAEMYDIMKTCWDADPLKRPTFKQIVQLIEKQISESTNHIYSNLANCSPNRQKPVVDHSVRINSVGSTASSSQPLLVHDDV

## C[C@H]1C[C@@H](O)CN(c2ncc(Cl)c(Nc3ccc4c(c3)c3c(c(=O)n4C)OCC(F)(F)[C@H](C4CC4)N3)n2)C1 [CCT373566_9A]
Kinases (468) [1]
  Percent Control: 95%
Kinases (468) [2]; KIT-autoinhibited
  Percent Control: 90%
Kinases (468) [2]; KIT
  Percent Control: 100%
Kinases (468) [3]
  Percent Control: 100%
Kinases (468) [4]
  Percent Control: 96%
Kinases (468) [5]
  Percent Control: 100%
Kinases (468) [6]
  Percent Control: 95%
Kinases (468) [7]
  Percent Control: 100%
Kinases (468) [8]
  Percent Control: 80%
Kinases (468) [9]
  Percent Control: 100%
Kinases (468) [10]
  Percent Control: 89%
Kinases (468) [11]
  Percent Control: 100%
Kinases (468) [12]
  Percent Control: 82%
Kinases (468) [13]
  Percent Control: 91%
Kinases (468) [14]
  Percent Control: 100%
Kinases (468) [15]
  Percent Control: 99%
Kinases (468) [16]
  Percent Control: 92%
Kinases (468) [17]
  Percent Control: 100%
Kinases (468) [18]
  Percent Control: 100%
Kinases (468) [19]; kinase RSK2(Kin.Dom.1-N-terminal) (Entrez RPS6KA3)
  Percent Control: 100%
Kinases (468) [19]; kinase RSK2(Kin.Dom.2-C-terminal) (Entrez RPS6KA3)
  Percent Control: 100%
Kinases (468) [20]
  Percent Control: 100%
Kinases (468) [21]
  Percent Control: 100%
Kinases (468) [22]
  Percent Control: 41%
Kinases (468) [23]
  Percent Control: 91%
Kinases (468) [24]
  Percent Control: 100%
Kinases (468) [25]
  Percent Control: 98%
Kinases (468) [26]
  Percent Control: 93%
Kinases (468) [27]
  Percent Control: 100%
Kinases (468) [28]
  Percent Control: 97%
Kinases (468) [29]
  Percent Control: 96%
Kinases (468) [30]
  Percent Control: 90%
Kinases (468) [31]
  Percent Control: 94%
Kinases (468) [32]
  Percent Control: 100%
Kinases (468) [33]
  Percent Control: 100%
Kinases (468) [34]
  Percent Control: 100%
